Data reported in patent US20230355517A1, “USE OF ACTIVE SUBSTANCES WITH ANTIVIRAL, ANTI MALARIAL, AND/OR MUCOLYTIC PROPERTIES IN THE TREATMENT OF VIRAL LUNG DISEASES INCLUDING COVID-19 BY SOFT MIST INHALER OR VIBRATION MESH TECHNOLOGY NEBULIZER THROUGH INHALATION ROUTE” (ATANBUL UNIVERSITESI REKTOLUGU, priority 2020, published 2023).

Experiments:
[1] = pH analysis of compositions containing favipiravir; format: physicochemical
Experimental: In the present invention, pH analysis was performed for the composition containing favipiravir. […] When it is formulated with phosphate buffer, pH values thereof approach 7,4. Therefore, in consideration of all combinations, the pH interval for the formulations was kept in the range of 3.5-8.0.

lung tissue = test system: lung tissue; set-up: species or system rats; settings: rat, in vivo
[2] = format: physicochemical; settings: pH 7.4
Experimental: In the present invention, a study for solubility of favipiravir active substance was conducted.

With `NC(=O)c1nc(F)c[nH]c1=O` [favipiravir] the pH values ([1]; formulated with phosphate buffer) was ~7,4, the “smallest pH value” ([1]; in combinations of physiological saline, half physiological saline, and HP-β-cyclodextrin) was 3.56-3.62 and the “histological damage scores of the lungs (H&E)” value (lung tissue) was “not statistically different”. For the same compound, the “lung histology under light microscopy” value (lung tissue) was “Normal lung histology” and the solubility [2] was “further increased”.
